How the values were obtained:
[1] = molecular target: glycogen synthase kinase-3β (GSK-3β) (Homo sapiens, UniProt P49841); details: cited from earlier work
[2] = system: white blood cell count (WBC); details: patients; cited from earlier work
[3] = system: RIF-1 murine fibrosarcoma; assay: RIF-1 fibrosarcoma tumor growth delay (tumor volume quadrupling time) in mice; type: in vivo, Female C3H mice; details: for enhancement of amonafide activity by sensitizing or potentiating agent: agent given with amonafide
Text: Tables 1 and 2, shown in FIGS. 1 and 2, respectively, show the use of amonafide, alone or in combination with another anti-neoplastic drug, in a tumor model in mice as described below Female C3H mice (Charles River Laboratories, Hollister, Calif.), approximately 3 months old, were used for the study. The average body weight was approximately 25 g. Animals were maintained in isolator cages on a 12-hour light-and-dark cycle. Food and water were available ad libitum. The RIF-1 murine fibrosarcoma cell line was maintained in in vitro culture (Waymouth medium supplemented with 20% fetal bovine serum) at 37° C. in a humidified 5% CO2 incubator. Log-phase RIF-1 cells were trypsinized and harvested from cell culture flasks to yield a concentration of 4×10^6 cells/mL, then injected intradermally in a volume of 50 μL (equivalent to 2×10^5 cells per injection) into both flanks of each mouse. Nine days later, when tumors reached approximately 100 mm^3 in size, the animals were randomized to different treatment groups. The intraperitoneal injection volume was 100 μL. The oral administration volume was 100 μL. For evaluation of tumor growth delay, tumors were measured three times weekly for up to 22 days with Vernier calipers. Tumor volume (cubic millimeters, mm^3) was calculated according to the following formula: V=π/6×D1×D2×D3, where D1, D2, and D3 are perpendicular diameters measured in […]. Tumor volume quadrupling time (TVQT), defined as the time required for a tumor to grow to four times (4×) its initial volume (at the time of treatment), was used as a study endpoint. The TVQT was determined for each treatment group and expressed in days as the mean±standard error (SE). In these tables, “CDDP” is cisplatin, “VBL” is vinblastine, “HHT” is homoharringtonine, “5FU” is 5-fluorouracil, “CPT” is camptothecin, “RA” is rosmarinic acid, and “MGBG” is methylglyoxalbisguanylhydrazone. For solvents and excipients, “Sal” is saline, “NMF” is N-methylformamide, and “PEG400” is polyethylene glycol 400. For routes of administration, “IP” is intraperitoneal, “PO” is oral, “IM” is intramuscular, and “SC” is subcutaneous. In these tables, the use of the “+” symbol means that both drugs were administered at the same time, while the use of the “ ? ” symbol means that the drug to the left of the symbol was administered first, followed by the drug to the right of the symbol; the second drug was administered 30 minutes after the first drug. In the headings for these tables, “Days to 4×” is the number of days it takes the tumors to grow to four times their original size. “T/C” represents the average number of days that it takes the tumors to grow to four times their original size for the specified treatment divided by the number of days that it takes the tumors to grow to four times their original size for the control.

[4] = system: topoisomerase II; details: Hsiang et al. 1989; cited from earlier work
[5] = molecular target: T1, N-acetyltransferase NAT2 (Homo sapiens, UniProt P11245); details: cited from earlier work
T1 sequence (P11245 1-290): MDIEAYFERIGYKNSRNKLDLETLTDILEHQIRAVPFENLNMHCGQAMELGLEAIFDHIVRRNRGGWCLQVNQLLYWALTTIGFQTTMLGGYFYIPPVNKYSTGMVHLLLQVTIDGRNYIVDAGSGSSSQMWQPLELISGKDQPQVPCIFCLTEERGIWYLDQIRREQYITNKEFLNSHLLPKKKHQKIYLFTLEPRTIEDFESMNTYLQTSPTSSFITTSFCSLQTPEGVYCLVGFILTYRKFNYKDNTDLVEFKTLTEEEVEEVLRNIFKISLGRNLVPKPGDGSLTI

Sequence of glycogen synthase kinase-3β (GSK-3β) (P49841 whole entry, species assumed): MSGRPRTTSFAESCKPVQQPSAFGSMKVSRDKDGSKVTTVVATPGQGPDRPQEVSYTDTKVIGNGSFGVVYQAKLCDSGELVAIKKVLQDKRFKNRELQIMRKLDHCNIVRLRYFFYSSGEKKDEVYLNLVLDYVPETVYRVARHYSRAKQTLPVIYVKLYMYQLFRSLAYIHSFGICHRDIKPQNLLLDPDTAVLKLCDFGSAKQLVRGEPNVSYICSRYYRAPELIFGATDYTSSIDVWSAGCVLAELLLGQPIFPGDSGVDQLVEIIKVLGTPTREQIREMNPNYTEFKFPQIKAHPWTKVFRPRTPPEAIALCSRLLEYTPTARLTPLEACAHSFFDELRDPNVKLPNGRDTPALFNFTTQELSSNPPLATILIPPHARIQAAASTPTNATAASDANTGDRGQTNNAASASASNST

## CN1C(=O)/C(=C2/C(=O)Nc3ccccc32)c2ccccc21 [Meisoindigo]
[1]
  concentration for inhibition of GSK-3β: 5 to 50 nM

## CC(=O)Nc1cc2c3c(cccc3c1)C(=O)N(CCN(C)C)C2=O [acetyl amonafide]
[2]
  impact on white blood cell count: induce leukocytopenia and, in particular, granulocytopenia

## NC(=O)c1cccnc1 [nicotinamide]
[3]
  enhancement of amonafide activity by sensitizing or potentiating agent: enhances amonafide activity

## COc1ccc2cc3[n+](cc2c1OC)CCc1cc2c(cc1-3)OCO2 [berberine]
[3]
  enhancement of amonafide activity by sensitizing or potentiating agent: enhances amonafide activity

## CN(C)CCN1C(=O)c2cccc3cc(N)cc(c23)C1=O [amonafide, 5-amino-2-[2-(dimethylamino)ethyl]-1H-benzo[de]isoquinoline-1,3(2H)-dione]
[3]; RIF-1 tumors in C3H mice, alone or in combination with another anti-neoplastic drug
  effect on tumor growth: significant effect on tumor growth
[3]; amonafide administered together with another anti-neoplastic drug
  combination effect with another anti-neoplastic drug: evidence of synergism
[3]; amonafide combined with a second drug
  enhancement of antitumor effects of other drugs (chemosensitizer or chemopotentiator): enhanced the antitumor effects of cisplatin, 5-fluorouracil, homoharringtonine, vinblastine, camptothecin, methylglyoxalbisguanylhydrazone, and cytarabine
[3]; direct systemic (intraperitoneal) administration or oral route
  antiproliferative activity by route: active antiproliferative agent
[3]; single administration or multiple oral doses
  activity by schedule: active after a single administration or given as multiple doses orally
[4]
  promotion of topoisomerase II-mediated DNA cleavage: promote topoisomerase II-mediated DNA cleavage
[5]
  metabolism by NAT2: converted to an active metabolite by way of the N-acetyltransferase NAT2
